This note sets out measurements from PubChem BioAssay (NCI).

Molecules are shown by their SMILES. “And” between values parts separate entries of the source, which are not always exact repeats. Identical values can stand only once.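 Where inhibition never reached the appropriate level, the endpoint shown equals the highest concentration tested. Otherwise, values were interpolated linearly from a five-concentration, 48-hour dose response in 96-well plates. Here, GI50 denotes the concentration required for 50% inhibition of growth. At the TGI there is no net growth.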

Assay in all cases: DTP human tumour cell line panel, 48 h
In assay [1] the test system is A498 renal.
For assay [2], the system named is CAKI-1 renal.
In assay [3] the test system is DU-145 prostate.
Assay [4] concerns HCC-2998 colon.
The test system of assay [5] is HL-60(TB) leukemia.
Assay [6] deals with LOX IMVI melanoma.
The test system of assay [7] is MALME-3M melanoma.
Assay [8] has as its system NCI-H226 lung.
Assay [9] has as its system NCI-H23 lung.
For assay [10], the system named is SF-268 CNS.

With `Cn1ncc(-c2ccc3c(=O)[nH]nc(CN)c3c2)c1-c1c(F)c(Cl)cc(OC2CC2)c1C#N`, the GI50 (as a rule, the concentration at which growth is held to half of that of the control) in [1] is 16 µM and 14.3 µM; in assay [2] it was 11.6 µM and 11.2 µM; in assay [3] it was 16.9 µM and 14.4 µM; in assay [4], 14.2 µM and 14.5 µM; in assay [5] it was 20.6 µM and 23.1 µM; in assay [6], 12.5 µM and 12.9 µM. Besides, the GI50 in [7] is 14.2 µM and 12.2 µM; in [8] it was 15.7 µM and 13.2 µM; in assay [9], 15.3 µM and 14.3 µM; in [10], 14.1 µM and 12.8 µM. Further, the total growth inhibition concentration (TGI) – broadly, the concentration at which net growth stops – was 29.8 µM and 27.5 µM in assay [1]; 24.1 µM and 23.6 µM in assay [2]; 32.2 µM and 28.1 µM in assay [3]; 28 µM and 28.3 µM in [4]; over 100 µM in [5]; 25.6 µM and 26.2 µM in assay [6]. Further, the TGI in assay [7] was 28.8 µM and 25.5 µM; in [8] it was 32 µM and 27.4 µM; in [9], 32 µM and 29.6 µM; in assay [10], 28.8 µM and 26.7 µM.
Consider `CNC(=S)Nc1ccc(OC)c2ccccc12`, for which the TGI in assay [2], in assay [3], in assay [4], in assay [5], in [6] and in [7] was over 10 µM in each case. For the same molecule, the TGI in assay [9] and in assay [10] was over 10 µM each time.
For the molecule `CCN1C(=O)N(CC)C2C1NN=c1s/c(=C\c3ccc(Cl)cc3Cl)c(=O)n12` (centres undefined), the concentration for 50% growth inhibition (GI50) in assay [1] was 0.0194 µM; in assay [2], 0.0396 µM; in [3], 0.0332 µM; in [4], 0.0367 µM; in [5], 0.0227 µM; in assay [6] it was 0.0329 µM. For the same molecule, the GI50 in assay [7] was 0.0777 µM; in [8], 0.129 µM; in assay [9], 0.0505 µM; in assay [10], 0.0485 µM. For the same molecule, the TGI was 0.0667 µM in assay [1]; 25.7 µM in [2]; 1.38 µM in assay [3]; 10.9 µM in assay [4]; 0.0534 µM in assay [5]; over 35.1 µM in assay [6]. In addition, the TGI is over 75 µM in [7], over 100 µM in assay [9] and over 67.5 µM in assay [10].
With `c1ccc(NN(Cc2cnccn2)c2ccccc2)cc1`, the TGI in assay [1], in assay [2], in [3], in assay [5], in assay [6] and in [7] was over 100 µM in each case. For the same molecule, the TGI in [8], in assay [9] and in assay [10] was over 100 µM throughout.
Take `C[C@@H](NC(C#N)c1ccco1)c1ccccc1` (some centres undefined): the total growth inhibition concentration (TGI) in [1], in assay [3], in [4], in assay [5], in assay [7] and in [8] was over 100 µM throughout. Moreover, the total growth inhibition concentration (TGI) in assay [9] and in assay [10] was over 100 µM each time.
Consider `CO/N=C(\COc1ccc2c(c1)[nH]c1ccccc12)c1ccc(OC)cc1`, for which the GI50 in assay [1] is 19.2 µM; in assay [3], over 100 µM; in assay [4], over 100 µM; in [5] it was 62.2 µM; in assay [6], 19.6 µM; in assay [7], 9.71 µM. For the same molecule, the results for the GI50 in assay [8], in assay [9] and in assay [10] were over 100 µM, 32.2 µM and 56.1 µM, respectively. In addition, the TGI in [1] was 46 µM; in [3], over 100 µM; in [4] it was over 100 µM; in [5], over 100 µM; in [6], over 100 µM; in [7] it was 74.6 µM. In addition, the TGI in assay [8], in [9] and in assay [10] was over 100 µM each time.
`CCSC1=NC2C(N(CC)C(=O)N2CC)N1/N=C/C=C/c1ccccc1[N+](=O)[O-]` (centres undefined): the GI50 in assay [1] is 0.0283 µM; in [2], 0.0647 µM; in [3], 0.325 µM; in assay [4] it was 0.362 µM; in assay [5], 0.205 µM; in assay [6] it was 0.126 µM. Also, the GI50 in [7] was 0.135 µM; in assay [8], 0.381 µM; in assay [9] it was 0.351 µM; in assay [10], 0.486 µM. Besides, the TGI in [1] was 0.209 µM; in assay [2], over 100 µM; in assay [3], over 100 µM; in [4] it was 39.6 µM; in assay [5], 0.502 µM; in [6], over 100 µM. Besides, the TGI in assay [7], in assay [8], in assay [9] and in assay [10] was over 100 µM in each case.
For the molecule `O=C(NCC1CC1)c1ccc(-c2cccc(C(=O)NC3CC3)c2)cc1`, the GI50 in [1] is over 15.8 µM; in [2] it was over 25 µM; in [3], over 25 µM; in assay [4], over 25 µM; in [5], over 25 µM; in [6], over 25 µM. The GI50 in [7], in assay [8], in assay [9] and in [10] was over 25 µM throughout. Moreover, the TGI in assay [1], in assay [2], in assay [3], in assay [4], in assay [5] and in [6] was over 25 µM each time. For the same molecule, the TGI in assay [7], in [8], in assay [9] and in assay [10] was over 25 µM in each case.
In the case of `COc1ccc(C2=Nn3c(nnc3-c3cc(Cl)cc(Cl)c3Cl)SC2)cc1`, the GI50 is 0.583 µM in assay [1]; 0.562 µM in [2]; 0.355 µM in assay [3]; 1.21 µM in assay [4]; 0.461 µM in assay [5]; 0.568 µM in [6]. The GI50 was 0.44 µM in assay [7], 0.778 µM in assay [8], 0.701 µM in [9] and 1.3 µM in assay [10]. The concentration for total growth inhibition (TGI) is over 100 µM in assay [1]; over 49.7 µM in [2]; 4.42 µM in assay [3]; 5.41 µM in [4]; 2.03 µM in assay [5]; over 100 µM in [6]. In addition, the TGI in [7] is over 50.5 µM; in assay [8], over 100 µM; in assay [9], over 100 µM; in assay [10], over 100 µM.
On to `CC(C)=CCN1c2ccccc2NC(=O)CC1C` (centres undefined), for which the TGI in assay [1], in assay [2], in assay [3], in assay [4], in [5] and in assay [6] was over 100 µM throughout. The TGI in assay [7], in assay [8], in [9] and in [10] was over 100 µM throughout.
Regarding `O=C(O)c1nc(NCc2nc3cc(Cl)ccc3o2)n[nH]1`, the GI50 in [1], in [2], in [3], in [4], in assay [5] and in assay [6] was over 100 µM each time. Moreover, the GI50 in assay [7], in [8], in assay [9] and in assay [10] was over 100 µM throughout. Moreover, the concentration for total growth inhibition (TGI) in assay [1], in assay [2], in assay [3], in assay [4], in assay [5] and in assay [6] was over 100 µM throughout. In addition, the TGI in assay [7], in assay [8], in assay [9] and in assay [10] was over 100 µM in each case.
For `CN(C)CCNC(=O)Cn1ccc(=O)c2cc([N+](=O)[O-])ccc21`, the TGI in assay [1], in assay [2], in assay [3], in assay [4], in assay [5] and in assay [6] was over 100 µM each time. The concentration for total growth inhibition (TGI) in assay [7], in assay [8], in [9] and in [10] was over 100 µM each time.
Regarding `CCOc1ccccc1CCN=C1NC(=O)/C(=C/c2ccc3ncccc3c2)S1`, the GI50 in assay [1] was 0.744 µM; in [2] it was 0.75 µM; in assay [3], 1.2 µM; in assay [4], 3.05 µM; in assay [5], 0.789 µM; in [6], 1.16 µM. In addition, the GI50 was 3 µM in [7], 4.32 µM in assay [8], 2.1 µM in [9] and 1.35 µM in assay [10]. Besides, the total growth inhibition concentration (TGI) in assay [1] is 12.8 µM; in [2] it was over 7.13 µM; in assay [3] it was over 16.2 µM; in assay [4], 11.8 µM; in [5], 2.65 µM; in assay [6] it was 7.9 µM. The TGI in assay [7] was 10.6 µM; in assay [8], over 25 µM; in [9] it was over 25 µM; in assay [10] it was over 25 µM.
With `CC(=O)Nc1ccc(-c2cc(C(=O)O)c3cc4ccccc4cc3n2)cc1`, the TGI in [1], in [2], in [3], in assay [5], in [6] and in assay [7] was over 100 µM each time. Moreover, the total growth inhibition concentration (TGI) in [8], in [9] and in [10] was over 100 µM each time.
`CC1CC(C)CC(C)C(O)/C(C#N)=C/C=C/CC(C2CCCC2C(=O)O)OC(=O)CC(O)C(C)C1` (centres undefined): the GI50 was 0.0152 µM in [1]; 0.0166 µM in assay [2]; 0.132 µM in assay [3]; 0.0297 µM in assay [4]; 0.0166 µM in assay [5]; 0.0162 µM in assay [6]. For the same molecule, the GI50 was 0.115 µM in assay [7]; 0.031 µM in assay [8]; 0.0183 µM and < 0.0105 µM in assay [9]; 0.0307 µM in assay [10]. Besides, the TGI in assay [1] was 0.0482 µM and 0.0186 µM; in assay [2] it was 0.254 µM and 0.221 µM; in assay [3], 0.659 µM and 0.896 µM; in [4], 0.102 µM and 0.0726 µM; in assay [5] it was 0.0499 µM and 0.161 µM; in assay [6], 0.0479 µM and 0.0213 µM. In addition, the TGI was 0.312 µM and 0.106 µM in assay [7]; 0.0951 µM and 0.029 µM in assay [8]; 0.0919 µM and 0.0221 µM in assay [9]; 0.311 µM and 0.117 µM in assay [10].
As for `Oc1cc(Cc2ccccc2)c(Cc2ccccc2)cc1O`, the TGI in assay [1], in [2], in assay [3], in assay [4], in assay [5] and in assay [6] was over 10 µM throughout. Further, the TGI in assay [7], in [8], in assay [9] and in assay [10] was over 10 µM each time.
For the molecule `CCCN1C(=O)NC(=O)C(CC)(N2C(=O)c3c(F)c(F)c(F)c(F)c3C2=O)C1=O` (centres undefined), the GI50 in assay [1] is 3.93 µM; in assay [2], 1.86 µM; in [3], 1.7 µM; in [4] it was 1.8 µM; in assay [5] it was 1.97 µM; in assay [6], 1.66 µM. Further, the GI50 in assay [7] is 2.06 µM; in assay [8] it was 3.08 µM; in assay [9], 2.17 µM; in [10], 2 µM. In addition, the TGI in assay [1] came to 11.6 µM; in assay [2], 3.75 µM; in assay [3] it was 3.27 µM; in [4] it was 3.93 µM; in [5], 4.33 µM; in [6], 4.34 µM. The TGI is 5.31 µM in [7], 12.1 µM in [8], 5.77 µM in assay [9] and 5.07 µM in [10].
`N#C[Se]Cc1cc(-c2ccccc2)n(-c2ccc(S(N)(=O)=O)cc2)n1`: the GI50 in assay [2] was 2.07 µM; in [3] it was 0.735 µM; in assay [4], 2.24 µM; in assay [5] it was 0.939 µM; in assay [6], 0.171 µM; in [7], 2.2 µM. In addition, the GI50 was 0.249 µM in [8], 0.495 µM in assay [9] and 0.336 µM in assay [10]. The TGI in assay [2] was found to be 5.24 µM; in assay [3], 2 µM; in assay [4], 4.94 µM; in [5], 3.87 µM; in [6], 0.324 µM; in assay [7], 6.6 µM. The TGI in [8] came to 0.648 µM; in [9], 2.55 µM; in assay [10], 1.33 µM.
